In patent US9611278B2 (Merck Sharp & Dohme Corp., priority 2013, dated 2017):
pEC50: −log10 of the molar value.

Target: T1, sGC α1/β1 heterodimer stably expressed in CHO-K1 cells (CHO-K1/sGC) (Homo sapiens, UniProt Q02108+Q02153)
T1 construct: expressed in transfected cells
T1 sequence (Q02108 1-690): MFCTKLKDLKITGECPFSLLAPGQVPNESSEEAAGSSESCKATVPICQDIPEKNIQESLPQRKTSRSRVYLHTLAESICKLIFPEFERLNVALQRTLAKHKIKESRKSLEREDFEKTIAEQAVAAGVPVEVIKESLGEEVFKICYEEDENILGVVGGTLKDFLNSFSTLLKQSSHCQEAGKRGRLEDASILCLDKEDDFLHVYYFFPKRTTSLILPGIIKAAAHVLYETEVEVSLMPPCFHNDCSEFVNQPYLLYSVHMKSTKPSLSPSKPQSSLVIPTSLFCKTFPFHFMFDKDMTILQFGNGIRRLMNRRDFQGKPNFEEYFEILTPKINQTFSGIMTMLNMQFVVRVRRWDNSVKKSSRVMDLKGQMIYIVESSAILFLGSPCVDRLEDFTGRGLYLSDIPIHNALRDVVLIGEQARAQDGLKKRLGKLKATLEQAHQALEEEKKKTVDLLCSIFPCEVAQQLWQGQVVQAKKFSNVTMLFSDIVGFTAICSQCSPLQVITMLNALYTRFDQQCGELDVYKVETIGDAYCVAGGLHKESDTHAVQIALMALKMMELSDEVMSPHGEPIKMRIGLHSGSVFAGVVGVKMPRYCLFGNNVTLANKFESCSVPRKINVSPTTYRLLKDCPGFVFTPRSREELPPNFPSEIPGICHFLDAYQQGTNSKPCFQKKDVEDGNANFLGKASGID
T1 sequence (Q02153 1-619): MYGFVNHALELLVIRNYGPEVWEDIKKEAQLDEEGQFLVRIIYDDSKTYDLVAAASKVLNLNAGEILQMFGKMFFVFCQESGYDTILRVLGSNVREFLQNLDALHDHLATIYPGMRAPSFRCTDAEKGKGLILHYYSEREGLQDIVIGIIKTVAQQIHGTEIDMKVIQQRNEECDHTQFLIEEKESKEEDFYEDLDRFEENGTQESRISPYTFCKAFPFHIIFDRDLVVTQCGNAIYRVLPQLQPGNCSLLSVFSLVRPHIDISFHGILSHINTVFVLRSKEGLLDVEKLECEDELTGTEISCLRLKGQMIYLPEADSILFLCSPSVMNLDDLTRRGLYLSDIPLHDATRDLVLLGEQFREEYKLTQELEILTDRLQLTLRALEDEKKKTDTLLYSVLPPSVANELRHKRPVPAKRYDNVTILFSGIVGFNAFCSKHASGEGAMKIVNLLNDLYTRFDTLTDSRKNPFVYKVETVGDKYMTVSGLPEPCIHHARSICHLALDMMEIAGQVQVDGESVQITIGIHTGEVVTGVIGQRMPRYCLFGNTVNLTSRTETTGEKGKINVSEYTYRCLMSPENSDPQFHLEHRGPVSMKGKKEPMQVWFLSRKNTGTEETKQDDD
Experiment: Cell-based sGC Functional Assay (CASA Assay)
Settings: for Emax: CHO-K1, activation as percentage of maximum cGMP production of Compound A (set to 100%), read-out: % Act.; for pEC50: inflection point of cGMP generation in CHO-K1/sGC cells, 4P fit, 1 hr at 37° C., read-out: IP
Method in brief: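 CHO-K1 cells stably expressing human sGC α1/β1 were incubated with compound for 1 h at 37 °C in buffer with 0.5 mM IBMX and 2.5% DMSO, with or without 1 μM DETA-NO. Intracellular cGMP was read by HTRF and expressed as percentage of maximal activation by reference activator Compound A. Values came from a 4-parameter fit.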

Emax [%]	pEC50	SMILES
88	6.36	Cn1cc(C2(C)C(=O)Nc3nc(-c4nc(CCC(F)(F)C(F)(F)F)nc5c4cnn5C)nc(N)c32)cn1 (stereo not shown) [Example 23, 4-Amino-5-methyl-5-(1-methyl-1H-pyrazol-4-yl)-2-(1-methyl-6-(3,3,4,4,4-pentafluorobutyl)-1H-pyrazolo[3,4-d]pyrimidin-4-yl)-5,7-dihydro-6H-pyrrolo[2,3-d]pyrimidin-6-one]
84	6.05	[2H]C([2H])([2H])n1ncc2c(-c3nc(N)c4c(n3)NC(=O)C4(c3cnn(C)c3)C3CC3)nc(CCC(F)(F)C(F)(F)F)nc21 (stereo not shown) [Example 24, 4-Amino-5-cyclopropyl-5-(1-methyl-1H-pyrazol-4-yl)-2-(1-(methyl-d3)-6-(3,3,4,4,4-pentafluorobutyl)-1H-pyrazolo[3,4-d]pyrimidin-4-yl)-5,7-dihydro-6H-pyrrolo[2,3-d]pyrimidin-6-one]
72	6.64	CC(C)n1cc(C2(C3CC3)C(=O)Nc3nc(-c4nc(CCC(F)(F)C(F)(F)F)nc5c4cnn5C)nc(N)c32)cn1 (stereo not shown) [Example 26, 4-Amino-5-cyclopropyl-5-(1-isopropyl-1H-pyrazol-4-yl)-2-(1-methyl-6-(3,3,4,4,4-pentafluorobutyl)-1H-pyrazolo[3,4-d]pyrimidin-4-yl)-5,7-dihydro-6H-pyrrolo[2,3-d]pyrimidin-6-one]
126	6.05	Cn1ncc2c(-c3nc(N)c4c(n3)NC(=O)C4(c3ncco3)C3CC3)nc(CCC(F)(F)C(F)(F)F)nc21 (stereo not shown) [Example 28, 4-Amino-5-cyclopropyl-2-(1-methyl-6-(3,3,4,4,4-pentafluorobutyl)-1H-pyrazolo[3,4-d]pyrimidin-4-yl)-5-(oxazol-2-yl)-5,7-dihydro-6H-pyrrolo[2,3-d]pyrimidin-6-one]
121	6.64	Cn1ncc2c(-c3nc(N)c4c(n3)NC(=O)C4(C)c3ccc(F)cn3)nc(CCC3CC(F)(F)C3)nc21 (stereo not shown) [Example 29, 4-Amino-2-(6-(2-(3,3-difluorocyclobutyl)ethyl)-1-methyl-1H-pyrazolo[3,4-d]pyrimidin-4-yl)-5-(5-fluoropyridin-2-yl)-5-methyl-5,7-dihydro-6H-pyrrolo[2,3-d]pyrimidin-6-one]
98	7.46	Cn1ncc2c(-c3nc(N)c4c(n3)NC(=O)C4(C)c3ccc(F)cn3)nc(CCC3CCC3)nc21 (stereo not shown) [Example 30, 4-Amino-2-(6-(2-cyclobutylethyl)-1-methyl-1H-pyrazolo[3,4-d]pyrimidin-4-yl)-5-(5-fluoropyridin-2-yl)-5-methyl-5,7-dihydro-6H-pyrrolo[2,3-d]pyrimidin-6-one]
169	7.36	Cn1ncc2c(-c3nc(N)c4c(n3)NC(=O)C4(c3ccc(Cl)cn3)C3CC3)nc(CC3CC(F)(F)C3)nc21 (stereo not shown) [Example 31, 4-Amino-5-(5-chloropyridin-2-yl)-5-cyclopropyl-2-(6-((3,3-difluorocyclobutyl)methyl)-1-methyl-1H-pyrazolo[3,4-d]pyrimidin-4-yl)-5,7-dihydro-6H-pyrrolo[2,3-d]pyrimidin-6-one]
113	7.23	Cn1ncc2c(-c3nc(N)c4c(n3)NC(=O)C4(c3ccc(C(F)(F)F)cn3)C3CC3)nc(CC3CC(F)(F)C3)nc21 (stereo not shown) [Example 32, 4-Amino-5-cyclopropyl-2-(6-((3,3-difluorocyclobutyl)methyl)-1-methyl-1H-pyrazolo[3,4-d]pyrimidin-4-yl)-5-(5-(trifluoromethyl)pyridin-2-yl)-5,7-dihydro-6H-pyrrolo[2,3-d]pyrimidin-6-one]
104	7.49	COc1ccc(C2(C)C(=O)Nc3nc(-c4nc(CC5CC(F)(F)C5)nc5c4cnn5C)nc(N)c32)nc1 (stereo not shown) [Example 33, 4-Amino-2-(6-((3,3-difluorocyclobutyl)methyl)-1-methyl-1H-pyrazolo[3,4-d]pyrimidin-4-yl)-5-(5-methoxypyridin-2-yl)-5-methyl-5,7-dihydro-6H-pyrrolo[2,3-d]pyrimidin-6-one]
109	7.36	CCCCc1nc(-c2nc(N)c3c(n2)NC(=O)C3(C)c2ccc(F)cn2)c2cnn(C)c2n1 (stereo not shown) [Example 34, 4-Amino-2-(6-butyl-1-methyl-1H-pyrazolo[3,4-d]pyrimidin-4-yl)-5-(5-fluoropyridin-2-yl)-5-methyl-5,7-dihydro-6H-pyrrolo[2,3-d]pyrimidin-6-one]
88	7.02	CCCCc1nc(-c2nc(N)c3c(n2)NC(=O)C3(C)c2ccc(C(C)C)cn2)c2cnn(C)c2n1 (stereo not shown) [Example 35, 4-Amino-2-(6-butyl-1-methyl-1H-pyrazolo[3,4-d]pyrimidin-4-yl)-5-(5-isopropylpyridin-2-yl)-5-methyl-5,7-dihydro-6H-pyrrolo[2,3-d]pyrimidin-6-one]
192	7.39	Cn1ncc2c(-c3nc(N)c4c(n3)NC(=O)C4(C)c3ccc(Cl)cn3)nc(CC3CC(F)(F)C3)nc21 (stereo not shown) [Example 37, 4-Amino-5-(5-chloropyridin-2-yl)-2-(6-((3,3-difluorocyclobutyl)methyl)-1-methyl-1H-pyrazolo[3,4-d]pyrimidin-4-yl)-5-methyl-5,7-dihydro-6H-pyrrolo[2,3-d]pyrimidin-6-one]
115	6.82	[2H]C([2H])([2H])n1ncc2c(-c3nc(N)c4c(n3)NC(=O)C4(C)c3nnc(C4CC4)o3)nc(CCC(F)(F)C(F)(F)F)nc21 (stereo not shown) [Example 39, 4-Amino-5-(5-cyclopropyl-1,3,4-oxadiazol-2-yl)-5-methyl-2-(1-(methyl-d3)-6-(3,3,4,4,4-pentafluorobutyl)-1H-pyrazolo[3,4-d]pyrimidin-4-yl)-5,7-dihydro-6H-pyrrolo[2,3-d]pyrimidin-6-one]
120	6.05	[2H]C([2H])([2H])n1ncc2c(-c3nc(N)c4c(n3)NC(=O)C4(CC)c3nnc(C4CC4)o3)nc(CCC(F)(F)C(F)(F)F)nc21 (stereo not shown) [Example 42, 4-Amino-5-(5-cyclopropyl-1,3,4-oxadiazol-2-yl)-5-ethyl-2-(1-(methyl-d3)-6-(3,3,4,4,4-pentafluorobutyl)-1H-pyrazolo[3,4-d]pyrimidin-4-yl)-5,7-dihydro-6H-pyrrolo[2,3-d]pyrimidin-6-one]
143	6.08	[2H]C([2H])([2H])n1ncc2c(-c3nc(N)c4c(n3)NC(=O)C4(c3nnc(C4CC4)o3)C3CC3)nc(CCCC(F)(F)F)nc21 (stereo not shown) [Example 43, 4-Amino-5-cyclopropyl-5-(5-cyclopropyl-1,3,4-oxadiazol-2-yl)-2-(1-(methyl-d3)-6-(4,4,4-trifluorobutyl)-1H-pyrazolo[3,4-d]pyrimidin-4-yl)-5,7-dihydro-6H-pyrrolo[2,3-d]pyrimidin-6-one]
101	6.13	CCn1ncc2c(-c3nc(N)c4c(n3)NC(=O)C4(c3nnc(C4CC4)o3)C3CC3)nc(CCC(F)(F)C(F)(F)F)nc21 (stereo not shown) [Example 45, 4-Amino-5-cyclopropyl-5-(5-cyclopropyl-1,3,4-oxadiazol-2-yl)-2-(1-ethyl-6-(3,3,4,4,4-pentafluorobutyl)-1H-pyrazolo[3,4-d]pyrimidin-4-yl)-5,7-dihydro-6H-pyrrolo[2,3-d]pyrimidin-6-one]
97	6.59	[2H]C([2H])([2H])n1ncc2c(-c3nc(N)c4c(n3)NC(=O)C4(c3nnc(C4CCC4)o3)C3CC3)nc(CCC(F)(F)C(F)(F)F)nc21 (stereo not shown) [Example 46, 4-Amino-5-(5-cyclobutyl-1,3,4-oxadiazol-2-yl)-5-cyclopropyl-2-(1-(methyl-d3)-6-(3,3,4,4,4-pentafluorobutyl)-1H-pyrazolo[3,4-d]pyrimidin-4-yl)-5,7-dihydro-6H-pyrrolo[2,3-d]pyrimidin-6-one]
